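All cell lines were grown in 96-well plates and treated with compound for 48 hours. GI50: concentration for 50% inhibition of growth.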 Active and inactive are the calls of the source. Cut-off read from the data, not from the text of the source: active = GI50 up to about 1.1 µM and inactive = higher.
Columns and labels:
Test in all cases: NCI tumour cell line growth inhibition, 48 h
[1] = tested on: DU-145
[2] = tested on: SW-620
[3] = tested on: COLO 205
[4] = tested on: OVCAR-5
[5] = tested on: KM12
[6] = tested on: SF-295
[7] = tested on: NCI-H460
[8] = tested on: NCI/ADR-RES
[9] = tested on: MDA-N
[10] = tested on: SNB-19
[11] = tested on: UACC-62
[12] = tested on: K562
[13] = tested on: SR
[14] = tested on: OVCAR-8
[15] = tested on: SK-OV-3
[16] = tested on: BT-549
[17] = tested on: M14
[18] = tested on: UO-31
[19] = tested on: OVCAR-4
[20] = tested on: SNB-75
[21] = tested on: HCT-15
[22] = tested on: ACHN
[23] = tested on: HL-60
[24] = tested on: MCF7
[25] = tested on: SK-MEL-2
[26] = tested on: OVCAR-3
[27] = tested on: SN12C
[28] = tested on: A498
[29] = tested on: HOP-62
[30] = tested on: EKVX
[31] = tested on: NCI-H226
[32] = tested on: T47D
[33] = tested on: U-251
[34] = tested on: CCRF-CEM
[35] = tested on: SK-MEL-5
[36] = tested on: HT-29
[37] = tested on: IGROV-1
[38] = tested on: Malme-3M
[39] = tested on: Hs-578T
[40] = tested on: 786-0
[41] = tested on: UACC-257
[42] = tested on: SF-268
[43] = tested on: PC-3
[44] = tested on: A549
[45] = tested on: NCI-H522
[46] = tested on: MDA-MB-231
[47] = tested on: HCT-116
[48] = tested on: SF-539
[49] = tested on: HCC 2998
[50] = tested on: TK-10
[51] = tested on: SK-MEL-28
[52] = tested on: NCI-H23
[53] = tested on: MOLT-4
[54] = tested on: CAKI-1
[55] = tested on: RXF 393
[56] = tested on: MDA-MB-435
[57] = tested on: HOP-92
[58] = tested on: RPMI-8226
[59] = tested on: LOX IMVI

For `CCC(C)(C)c1ccc(OCCCCNC(=O)c2ccc3ccccc3c2O)c(C(C)(C)CC)c1`, the GI50 [1] was 54.7 µM (inactive), the GI50 [2] was 18.3 µM (inactive) and the GI50 [3] was 14.2 µM (inactive). The GI50 [4] was 69.5 µM (inactive), the GI50 [5] was 44.8 µM (inactive) and the GI50 [6] was 48.3 µM (inactive). For the same molecule, the GI50 [7] was 23.1 µM (inactive), the GI50 [8] was 25.4 µM (inactive) and the GI50 [9] was 35.6 µM (inactive). The GI50 [10] was 55.2 µM (inactive), the GI50 [11] was 16.3 µM (inactive) and the GI50 [12] was 4.54 µM (inactive). The GI50 [13] was > 100 µM (inactive), the GI50 [14] was 27.5 µM (inactive) and the GI50 [15] was 74 µM (inactive). For the same molecule, the GI50 [16] was 30.8 µM (inactive), the GI50 [17] was 48.9 µM (inactive) and the GI50 [18] was 29.3 µM (inactive). The GI50 [19] was > 100 µM (inactive), the GI50 [20] was 29.8 µM (inactive) and the GI50 [21] was 0.425 µM. For the same molecule, the GI50 [22] was 16 µM (inactive), the GI50 [23] was 29.1 µM (inactive) and the GI50 [24] was 28.3 µM (inactive). The GI50 [25] was 30.8 µM (inactive), the GI50 [26] was 19.4 µM (inactive) and the GI50 [27] was 34.6 µM (inactive). For the same molecule, the GI50 [28] was 29.7 µM (inactive), the GI50 [29] was 33 µM (inactive) and the GI50 [30] was 21.8 µM (inactive). For the same molecule, the GI50 [31] was 12.6 µM (inactive), the GI50 [32] was 31 µM (inactive) and the GI50 [33] was 43 µM (inactive). The GI50 [34] was 9.68 µM (inactive), the GI50 [35] was 19.3 µM (inactive) and the GI50 [36] was 44.7 µM (inactive). For the same molecule, the GI50 [37] was 31.2 µM (inactive), the GI50 [38] was 11 µM (inactive) and the GI50 [39] was 31.5 µM (inactive). For the same molecule, the GI50 [40] was 15.1 µM (inactive), the GI50 [41] was 28 µM (inactive) and the GI50 [42] was 22.7 µM (inactive). The GI50 [43] was 6.08 µM (inactive), the GI50 [44] was 27.2 µM (inactive) and the GI50 [45] was 14.6 µM (inactive). For the same molecule, the GI50 [46] was 30 µM (inactive), the GI50 [47] was 17.6 µM (inactive) and the GI50 [48] was 33.1 µM (inactive). The GI50 [49] was 38.3 µM (inactive), the GI50 [50] was 13.4 µM (inactive) and the GI50 [51] was 13.6 µM (inactive). For the same molecule, the GI50 [52] was 23.7 µM (inactive), the GI50 [53] was 16.1 µM (inactive) and the GI50 [54] was 23 µM (inactive).

`N#CC(Cc1ccccc1)N(CCC1=CCCCC1)Cc1ccccc1` (centres undefined) was tested, and the GI50 [1] was > 100 µM (inactive), the GI50 [2] was 41.1 µM (inactive) and the GI50 [3] was 23.4 µM (inactive). The GI50 [4] was 97.7 µM (inactive), the GI50 [5] was 43.1 µM (inactive) and the GI50 [6] was 61.5 µM (inactive). The GI50 [7] was 62.2 µM (inactive), the GI50 [8] was 59.6 µM (inactive) and the GI50 [9] was 32.4 µM (inactive). For the same molecule, the GI50 [10] was > 100 µM (inactive), the GI50 [11] was 81.3 µM (inactive) and the GI50 [12] was 54.1 µM (inactive). The GI50 [14] was 72.1 µM (inactive), the GI50 [15] was > 100 µM (inactive) and the GI50 [16] was 71.9 µM (inactive). The GI50 [17] was 44.6 µM (inactive), the GI50 [18] was > 100 µM (inactive) and the GI50 [19] was 83.9 µM (inactive). The GI50 [20] was 61 µM (inactive), the GI50 [21] was 42.9 µM and the GI50 [55] was 46.1 µM (inactive). For the same molecule, the GI50 [22] was > 100 µM (inactive), the GI50 [24] was 31.2 µM (inactive) and the GI50 [25] was 57.8 µM (inactive). The GI50 [26] was 81.7 µM (inactive), the GI50 [28] was > 100 µM (inactive) and the GI50 [29] was > 100 µM (inactive). The GI50 [30] was 56.5 µM (inactive), the GI50 [32] was 47.3 µM (inactive) and the GI50 [33] was 81.7 µM (inactive). For the same molecule, the GI50 [35] was 22.3 µM (inactive), the GI50 [36] was 32.2 µM (inactive) and the GI50 [37] was 81.1 µM (inactive). For the same molecule, the GI50 [38] was 40.8 µM (inactive), the GI50 [39] was > 100 µM (inactive) and the GI50 [40] was > 100 µM (inactive). For the same molecule, the GI50 [41] was 43.8 µM (inactive), the GI50 [56] was 22 µM (inactive) and the GI50 [42] was > 100 µM (inactive). For the same molecule, the GI50 [43] was 51.1 µM (inactive), the GI50 [44] was 54.7 µM (inactive) and the GI50 [45] was 25.3 µM (inactive). The GI50 [46] was > 100 µM (inactive), the GI50 [47] was 36.8 µM (inactive) and the GI50 [57] was 35.1 µM (inactive). The GI50 [49] was 28.4 µM (inactive), the GI50 [50] was > 100 µM (inactive) and the GI50 [51] was 68.4 µM (inactive). The GI50 [52] was 56.8 µM (inactive), the GI50 [53] was 22.3 µM (inactive) and the GI50 [58] was 17.9 µM (inactive). For the same molecule, the GI50 [54] was > 100 µM (inactive).

`Cc1c2c(cc3c1C(=O)C(O)=C([C@@H](C)CO)C3=O)C(C)(C)CCC2` was tested, and the GI50 [1] was 30.5 µM (inactive), the GI50 [2] was 30.2 µM (inactive) and the GI50 [3] was 27 µM (inactive). The GI50 [4] was 36.9 µM (inactive), the GI50 [5] was 14.3 µM (inactive) and the GI50 [6] was 22.3 µM (inactive). The GI50 [8] was 23.3 µM (inactive), the GI50 [9] was 30.7 µM (inactive) and the GI50 [10] was 5.07 µM (inactive). The GI50 [11] was 28.2 µM (inactive), the GI50 [12] was 38.7 µM (inactive) and the GI50 [13] was 2.84 µM (inactive). The GI50 [14] was 25.5 µM (inactive), the GI50 [15] was 32.7 µM (inactive) and the GI50 [16] was 35.2 µM (inactive). The GI50 [17] was 23.2 µM (inactive), the GI50 [18] was 17.5 µM (inactive) and the GI50 [19] was 31.3 µM (inactive). The GI50 [20] was 21.6 µM (inactive), the GI50 [21] was 29.4 µM and the GI50 [55] was 32.1 µM (inactive). For the same molecule, the GI50 [25] was 17.1 µM (inactive), the GI50 [59] was 28.3 µM (inactive) and the GI50 [26] was 27 µM (inactive). The GI50 [27] was 27.7 µM (inactive), the GI50 [28] was 25.6 µM (inactive) and the GI50 [29] was 22.4 µM (inactive). For the same molecule, the GI50 [30] was 15.6 µM (inactive), the GI50 [31] was 33.8 µM (inactive) and the GI50 [32] was 32.8 µM (inactive). For the same molecule, the GI50 [33] was 17.5 µM (inactive), the GI50 [34] was 10.1 µM (inactive) and the GI50 [35] was 22.2 µM (inactive). For the same molecule, the GI50 [36] was 15.8 µM (inactive), the GI50 [37] was 29 µM (inactive) and the GI50 [38] was 22.8 µM (inactive). For the same molecule, the GI50 [39] was 16.7 µM (inactive), the GI50 [40] was 32.3 µM (inactive) and the GI50 [41] was 35.6 µM (inactive). For the same molecule, the GI50 [56] was 26.9 µM (inactive), the GI50 [42] was 15 µM (inactive) and the GI50 [43] was 19.1 µM (inactive). For the same molecule, the GI50 [44] was 29.8 µM (inactive), the GI50 [45] was 21.3 µM (inactive) and the GI50 [46] was 23.4 µM (inactive). The GI50 [47] was 25.7 µM (inactive), the GI50 [57] was 35 µM (inactive) and the GI50 [50] was 42.4 µM (inactive). The GI50 [51] was 28 µM (inactive), the GI50 [52] was 17.7 µM (inactive) and the GI50 [53] was 13.4 µM (inactive). The GI50 [58] was 31.3 µM (inactive) and the GI50 [54] was 33.4 µM (inactive).
